Consider five compounds from article PMC2077808 (2007).

SMILES strings stand for the structures.

The test system of assay [1] is ATP-ASAP (DNA, aptamer, single rA at cleavage site in DNA substrate, flanked by fluorescein-dT and DABCYL-dT) CTTCGGAGGAGAACCATAGTCGGGGGAGAAGATGTGTCCGTGCTATGGTTCGA
Nature of the assay: fluorescence enhancement kinetics, MgZ DNAzyme cleavage sensor. The following applies: 20 mM MgCl2; 50 mM HEPES pH 7.0, 0.001% Tween-20, room temperature; highest tested 1 mM.

The subject of assay [2] is ADP-ASAP (DNA:RNA, aptamer, RNA aptamer with all-DNA 30-nt antisense element; single rA in DNA substrate flanked by fluorescein-dT and DABCYL-dT) GGAGACGAGGGGTCGAACCGTAGCCCGAAGGTAGGAAGAGTGCCCCGGACAAUCAGACACGGUCUCCACTCTTCCTAGCTATGGTTCGATCAAGA
The assay is described as above. The following applies: 20 mM MgCl2.

Assay [3] shares this test system. The experiment in a line: initial rate of fluorescence enhancement, MgZ DNAzyme cleavage sensor. To be noted: 20 mM MgCl2, 50 mM HEPES pH 7.0, 0.001% Tween-20, room temperature, 5 nM ASAP, 1 µM MgZ.
The test system of assay [4] is ATP-ASAP (DNA, aptamer, single rA at cleavage site in DNA substrate, flanked by fluorescein-dT and DABCYL-dT) CTTCGGAGGAGAACCATAGTCGGGGGAGAAGATGTGTCCGTGCTATGGTTCGA
The assay is described as above. To be noted: 20 mM MgCl2, 50 mM HEPES pH 7.0, 0.001% Tween-20, room temperature, 5 nM ASAP, 50 nM MgZ.

The mark [5] stands for this setting: 50 mM HEPES pH 7.0, 0.001% Tween-20, room temperature, highest tested 1 mM.

As to `Nc1nc2c(ncn2[C@@H]2O[C@H](COP(=O)(O)OP(=O)(O)OP(=O)(O)O)[C@@H](O)[C@H]2O)c(=O)[nH]1`, in assay [1], the binding entry is listed as “no”.
In the case of `Nc1ncnc2c1ncn2[C@@H]1O[C@H](CO)[C@@H](O)[C@H]1O`, the binding result in assay [2] (setting [5]) is “no”.
Regarding `Nc1ncnc2c1ncn2[C@@H]1O[C@H](COP(=O)(O)O)[C@@H](O)[C@H]1O`, the binding result in assay [2] (setting [5]) is reported as “no”.
For `Nc1ncnc2c1ncn2[C@@H]1O[C@H](COP(=O)(O)OP(=O)(O)O)[C@@H](O)[C@H]1O`, the “apparent K d” value in assay [3] was determined as 35 ± 3 µM.
On to `Nc1ncnc2c1ncn2[C@@H]1O[C@H](COP(=O)(O)OP(=O)(O)OP(=O)(O)O)[C@@H](O)[C@H]1O`, for which the “apparent K d” value in assay [4] turned out to be 456 ± 47 µM. In assay [2] (50 mM HEPES pH 7.0, room temperature, no signal at 200 µM, signal at 300-1000 µM), the binding entry is listed as “weak”.
